Assay results: US9480702B2, “Use of chemically modified heparin derivates in sickle cell disease” (DILAFORETTE AB, priority 2011, dated 2016)
“Also recorded” adds a separate entry of the source. Where two headings read alike, the source gives them in different places.

What was measured:
human P-selectin = biological target: T1, human P-selectin (Homo sapiens, UniProt P16109); test: Binding to P-selectin analyzed by optical biosensor (surface plasmon resonance, Biacore 2000); conditions: read-out: apparent KD
T1 construct: Fc (IgG Fc fusion partner)
T1 sequence (P16109 with tags, fused parts or gaps limits assumed): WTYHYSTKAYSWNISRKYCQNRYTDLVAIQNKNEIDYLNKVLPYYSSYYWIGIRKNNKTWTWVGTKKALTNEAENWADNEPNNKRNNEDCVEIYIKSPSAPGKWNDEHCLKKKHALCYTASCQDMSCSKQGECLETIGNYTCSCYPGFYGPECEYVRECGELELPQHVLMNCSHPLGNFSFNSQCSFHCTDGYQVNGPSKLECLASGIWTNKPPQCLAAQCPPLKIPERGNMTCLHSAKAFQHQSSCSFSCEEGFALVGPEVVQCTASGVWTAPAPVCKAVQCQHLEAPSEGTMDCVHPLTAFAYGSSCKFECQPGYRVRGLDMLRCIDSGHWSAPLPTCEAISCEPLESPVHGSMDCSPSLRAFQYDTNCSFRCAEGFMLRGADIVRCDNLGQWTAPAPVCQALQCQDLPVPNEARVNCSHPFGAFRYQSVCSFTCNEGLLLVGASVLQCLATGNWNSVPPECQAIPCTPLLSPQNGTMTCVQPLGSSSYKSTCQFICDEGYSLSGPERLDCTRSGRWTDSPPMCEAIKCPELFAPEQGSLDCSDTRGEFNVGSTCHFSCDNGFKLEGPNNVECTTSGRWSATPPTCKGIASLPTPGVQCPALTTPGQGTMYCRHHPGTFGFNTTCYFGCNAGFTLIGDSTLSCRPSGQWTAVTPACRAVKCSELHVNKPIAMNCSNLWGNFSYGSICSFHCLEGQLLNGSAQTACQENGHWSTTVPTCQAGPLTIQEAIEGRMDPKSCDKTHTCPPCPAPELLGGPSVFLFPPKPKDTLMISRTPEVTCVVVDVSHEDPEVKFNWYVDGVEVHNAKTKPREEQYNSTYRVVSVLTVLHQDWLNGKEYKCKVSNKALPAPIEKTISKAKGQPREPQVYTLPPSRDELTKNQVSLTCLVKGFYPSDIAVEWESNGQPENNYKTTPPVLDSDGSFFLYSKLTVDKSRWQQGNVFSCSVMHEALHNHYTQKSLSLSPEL
Description: The heparin derivatives were desalted and transferred into running buffer using desalting columns. The molar concentrations of the eluates were determined by analysis of UA content (mg/ml) using the phenylphenol method (Blumenkrantz et al. 1973 Anal Biochem 54, 484-9). […] The data was analyzed using BIAevaluation software, version 3. To prepare the biosensor assay, the capturing affinity purified goat anti-human IgG Fc antibody was immobilized onto a carboxymethyl dextran chip. The antibody was injected at a concentration of 50 μg/ml in 50 mM sodium acetate buffer, pH 5.0 for 12 min at […] resulting in a final response of approximately 16,200 response units (RU) in flow cell 1 and 13,400 RU in flow cell 2. Remaining activated groups were blocked with an injection of ethanolamine-HCl. The P-selectin/Fc chimera was captured onto the antibody surface in flow cell 2 (Bachelet L. et al. 2009, Biochim et Biophys Acta 1790, 1416), by injecting the molecule at a concentration of 35 ug/mL, using running buffer (10 mM Hepes, 150 mM NaCl, 1 mM CaCl2, 0.005% Tween-20, pH 7.4, filtered 0.02 μm) in the mobile phase. […] The binding of different heparin derivatives to P-selectin was analyzed using running buffer at 20 μl/min. After the association and dissociation phase of each sample, regeneration of the surface was performed using running buffer containing 0.8 M NaCl. Data from the reference surface was subtracted from the data from the P-selectin surface. Stability of the P-selectin surface was verified by measuring the response from injections of 0.1 mg/mL heparin in the beginning and the end of each experiment.
The response data at steady-state was plotted against the concentration (data not shown). The data was analyzed using non-linear regression, assuming 1:1 binding. […] The peak value (Mp) was used instead of the (higher) Mw value when calculating the molar concentrations of UFH.

[1] = system: SS RBC adhesion to endothelial cells treated with IL-13 and histamine; test: In vitro sickle red blood cell adhesion to HUVECs in flow chamber; type: cell-based, human; conditions: for Inhibition of SS RBC adhesion to endothelial cells (overall): HUVECs stimulated with IL-13 and histamine
Description: Primary HUVECs (passage 4 only) were cultured to confluency on gelatin-coated slides in […] basal medium 2 (EBM2; Clonetics, Walkersville, Md.) supplemented with endothelial growth medium 2 (EGM2; Clonetics, Walkersville, Md.). For each assay, a gelatin coated slide with HUVECs grown to confluence was mounted inside a graduated height flow chamber. Both untreated and IL-13/histamine-stimulated slides were initially studied with each SS RBC sample. Subsequent experiments then compared adhesion with and without potential inhibitors of adhesion.
Human blood samples from patients homozygous for hemoglobin S were collected into citrate tubes.
In vitro studies of cell adhesion exposed to flowing conditions represent in vivo events, as compared to adhesion assays in which cells are simply allowed to incubate overlaid on a chemical or cellular substrate (e.g. laminin or endothelial cells) and then washed off by either non-controlled forces (e.g. pipette washes) or controlled forces (e.g. rotary motion devices). Flow chambers can produce either a constant shear stress throughout the chamber or a variable shear stress, produced by creating a variable height for the chamber.
Surface expression of P-selectin on IL-13 and histamine stimulated and unstimulated endothelial cells (HUVECs) were tested by flow cytometry. Measurement of the ability of SS RBC to adhere to these endothelial cells was performed in flow chambers. Negative control experiments included untreated endothelial cells, so that SS RBC adhesion to treated and untreated cells could be compared.
Multiple dose-finding experiments were conducted.

[2] = cited from earlier work
[3] = Bleeding time after tail incision in rats; type: in vivo, Sprague-Dawley rats; conditions: for Estimated equipotent doses with respect to effects on bleeding time, normalized vs. heparin: rats, i.v. dosing, heparin = 1
Description: (§1) Test procedures were as follows:
The incision was 9 mm long and 1 mm deep and was standardized using a template device. Blood was blotted from the incision until bleeding stopped. The time during which visible bleeding could be observed was measured, for up to 25 minutes. The longer the bleeding time, the more pronounced the anti-coagulant effects of the administered agent.
(§2) Saline: (Negative Control) • 3.

[4] = APTT in citrate plasma of dosed rats; type: in vivo, Sprague-Dawley rats; conditions: i.v. dosing, heparin = 1
Description: as §1
Citrate stabilized plasma was prepared from the blood.
as §2

[5] = system: SS RBC adhesion to the endothelium
Source text: These experiments utilize a previously described animal model (Zennadi et al. Blood 2007), in which window chambers are first implanted into the flanks of nude mice. Three to five days later, human normal or sickle red cells are infused into the mouse (usually through the tail vein) pre-treated with TNF-α (to induce inflammation and upregulate P-selectin expression); mice treated with vehicle only may be studied as controls. Female mice (nu−/nu−) 8-12 weeks in age from Jackson Laboratories, Bar Harbor, Me., were used to perform experiments described.
RBCs to be infused are pre-labelled with a fluorescent dye. The cells' adhesion may then be observed in subdermal blood vessels visible through the previously implanted window chambers. […] In addition, in some of these experiments, blood samples were drawn during the observation period in order to quantitate specific variables, such as cell survival. This model has the great advantages of providing direct visualization of cells in the context of whole blood and of allowing circulation of transfused cells under normal circulatory pressures.

factor IIa [6] = biological target: T2, factor IIa (Homo sapiens, UniProt P00734+P01008); conditions: measured values on the produced DF02
factor Xa [7] = conditions: measured values on the produced DF02
factor IIa [8] = biological target: T2, factor IIa; conditions: comparison value; cited from earlier work
factor Xa [9] = conditions: comparison value; cited from earlier work
[10] = daily prophylactic dose, four patients; cited from earlier work
[11] = steady-state response, non-linear regression assuming 1:1 binding, P-selectin/Fc chimera captured on chip
[12] = injected before and after induction of vaso-occlusion

## Tinzaparin natrium
Human P-selectin; [11]
  Kd: 4000 nM
[1]
  Inhibition of SS RBC adhesion to endothelial cells (overall): quite effective in reducing SS RBC adhesion
[2]; clinical study
  Bleeding events: several cases of bleeding events
[2]; sickle VOC
  Duration of hospitalization: significantly shortened
  Duration of the most-severe pain scores: significantly shortened

## sevuparin sodium [DF02]
[3]; adult rats, i.v.
  Anti-coagulant effect (bleeding time and coagulation parameters): reduced anti-coagulant effect
[3]; juvenile rats of age 14±1 days
  Anti-coagulant effect (bleeding time and coagulation parameters): reduced anti-coagulant effect
[3]
  Estimated equipotent doses with respect to effects on bleeding time, normalized vs. heparin: 30-50
[4]
  Estimated equipotent doses with respect to effects on APTT, normalized vs. heparin: 30-40
Human P-selectin
  Kd: 700 nM
[1]; 100 μg/ml
  Effect on SS RBC adhesion: appeared to inhibit adhesion as much as did higher concentrations; also recorded: easily detectable
[1]; 400 μg/ml, most samples
  Inhibition of SS RBC adhesion compared to tinzaparin: equivalent to the same concentration of tinzaparin
[1]; 10 and 50 μg/ml
  Effect on SS RBC adhesion: little effect
[1]
  Inhibition of SS RBC adhesion to endothelial cells (overall): able to inhibit SS RBC adhesion
[5]; as compared to a saline injection
  Vessel occupancy, decrease: 50%
[5]; [12]
  Effect on adhered SS-RBC: inhibition and reversal of adhered SS-RBC
  Effect on blood flow: partial normalization of the blood flow
[5]; mouse, in vivo
  Number of vessels that reached a normalized blood flow: dose dependent effect
Adult rats
  Effect on PT: too weak to allow for comparative estimates
Juvenile rats
  Effect on PT: weak
Factor IIa [6]
  antiIIa activity: less than 10 IU/mg
Factor Xa [7]
  antiXa activity: less than 10 IU/mg

## Heparin Sodium
[3]; adult rats, i.v.
  Anti-coagulant effect (bleeding time and coagulation parameters): profound dose-related effects on all parameters investigated
[3]
  Estimated equipotent doses with respect to effects on bleeding time, normalized vs. heparin: 1
[4]
  Estimated equipotent doses with respect to effects on APTT, normalized vs. heparin: 1
Human P-selectin; [11]
  Kd: 200 nM
Factor IIa [8]
  Corresponding value of specific anticoagulant activity (anti-factor IIa): at least 180 IU/mg
Factor Xa [9]
  Corresponding value of specific anticoagulant activity (anti-factor Xa): at least 180 IU/mg
[10]
  Pain and days at hospital: pain reduction and fewer days at hospital
